Measured values: US11110141B2, “Herbal compositions for the prevention or treatment of urinary incontinence and overactive bladder” (Rox IP Pty Ltd., priority 2011, dated 2021)

System: bladder control problems (urinary frequency, nocturia, stress incontinence, interstitial cystitis)
Test: Case studies
Type: in vivo, human
Description: person with a history of bladder frequency since childhood. They were diagnosed as a child, via cystometric studies, as having a small bladder. They were not medicated.
They presented urinary frequency, every 1.5 hours; nocturia (waking for the toilet at night) every 1.5 to 2.5 hours.
If consumed large quantities of alcohol (greater than 8 standard drinks), would experience flooding nocturesis (bed wetting). […]
person with stress incontinence (2-7 times daily) and urinary frequency (11 times daily). […] When presented, they were using oxybutynin patches (Oxytrol). A specialist recommended that they change patches every 3 days.
Person presented with interstitial cystitis that had been worsening for at least the past 5 years. They presented with penile pain (and some lower abdominal pain) that would increase in intensity the fuller their bladder, with relief on urination. As a result, they would need to urinate at least every 1.5 hours, day and night. If they went too long, the pain would increase to the point where they found it extremely difficult to walk or move. Every month, they would have an episode, usually during the night, where they would pass copious amounts of blood and some mucous from the bladder.
They would also find that every two weeks their symptom severity would increase and they would have “horrific, sharp pain all day every day” for two days. […]

SMILES | tolerability of previously tried drugs (in vivo) | tolerability of previously tried drugs (Case 2, patient history)
Cc1ccc(O)c([C@H](CCN(C(C)C)C(C)C)c2ccccc2)c1 [Detrol] | could not tolerate the side effects of dry mouth and nasal passages | 
CCN(CC)CC#CCOC(=O)C(O)(c1ccccc1)C1CCCCC1 (centres unmarked) [oxybutynin] |  | could not tolerate the side effects of dry mouth and nasal passages
